Melting point data for 91 molecules are collected here from a melting point compilation (Tetko et al.; mined from patent text by program, amines drawn as free bases though some values may be those of a salt).

The structures appear in SMILES notation.

`CCCCc1oc2ccccc2c1-c1ncc(-c2ccc3c(Br)c(OCc4ccc(C(=O)O)cc4)ccc3c2)o1`: the melting point (commonly the temperature, or range, at which the solid turns liquid) fell in the range of 281 to 283 °C. As to `CN1CCN(c2ccc(S(=O)(=O)c3ccccc3)c(N)c2)CC1`, the melting point lay within 90 to 93 °C. In turn, `O=C(O)CCCc1ccc(CCN(CC=Cc2ccc(Cl)cc2)S(=O)(=O)c2ccc(Cl)cc2)cc1` displayed a melting point of 112 to 113 °C. In the case of `CS(=O)(=O)O[C@H]1CC[C@H](Nc2ccnc3cc(Cl)ccc23)CC1`, the melting point lay within 154 to 159 °C.

The molecule `CCn1nc(C(C)(F)F)nc1Cc1ccc(-c2ccccc2-c2nnn[nH]2)nc1` returned a melting point of 103 to 104 °C. With `Cc1ccccc1NC(=O)CN1C(=O)c2ccccc2C1=O`, the melting point was found to be 254 °C. As for `Cc1noc(NS(=O)(=O)c2ccccc2-c2ccc(-c3ncco3)cc2CNC=O)c1C`, the figure is 105 to 109 °C.

Take `CC(=O)NCCCn1nnnc1S`: the melting point was 152 to 154 °C.

Molecule `O=P(O)(O)Cc1ccc(CP(=O)(O)O)cc1` had a melting point of more than 300 °C. Molecule `NCCSc1ncccc1C(N)=O` yielded a melting point of 131 to 133 °C. Molecule `CC1=C(Cl)C(=O)c2ccccc2C1=O` had a melting point of 152 to 154 °C.

On to `CCC1(CCCCN2CCN(c3cccc(Cl)c3)CC2)C(=O)Nc2cc(F)ccc21` (stereo unspecified), for which the melting point is 116 to 117 °C.

Take `CC(=O)c1ccc(C2=NC[C@@H](O)[C@H](c3ccccc3)O2)cc1` (racemic): the melting point came out at 130 °C. Regarding `COC(=O)CC(NC(=O)C(C)(C)C)C(C)=O` (stereo unspecified), the melting point lay in the range of 68 to 69 °C. On to `CCOC(=O)C1=C(C)NC(C(OCC)OCC)=C(C(=O)OCC)C1c1cc([N+](=O)[O-])ccc1Cl` (stereo unspecified), for which the melting point fell in the range of 117 to 118 °C.

On to `NC(=O)C1CCC(OCCCN2CCN(c3cccc4sccc34)CC2)CC1` (stereo unspecified), for which the melting point was determined as 108 °C. The molecule `CCOC(=O)C(=NOC1CCCCC1)c1csc(N)n1` came in with a melting point of 125 to 126 °C.

Take `O=C1CCC(N2C(=O)c3cccc(NC(=O)COc4ccccc4)c3C2=O)C(=O)N1` (stereo unspecified): the melting point is 236 to 238 °C. On to `Cc1cccc(CN(CCC(=O)O)c2nc(N)nc(Cl)n2)c1`, for which the melting point fell in the range of 168 to 170 °C. On to `CCOc1ccc(-c2nnc(C(N)=O)o2)cc1`, for which the melting point was determined as 188 °C. The molecule `CSC(=O)c1ccccc1NC1CCN(C)CC1` had a melting point of 64 to 65 °C. On to `Cn1c2ccccc2c2c(N)c3c(nc21)C=CC3=O`, for which the melting point is 279 to 280 °C. `CS(=O)c1ccc(-c2cc(C(F)F)nn2-c2ccc3c(c2)OCO3)cc1` (stereo unspecified) had a melting point of 104 to 105 °C. In turn, `O=C(O)c1cccc(OCc2cc(Cl)cc(Cl)c2)c1OCc1cc(Cl)cc(Cl)c1` registered a melting point of 150 to 151 °C.

As to `CS(=O)(=O)c1ccc(C(=O)O)c(Cl)c1CO`, the melting point was in the range of 240 to 245 °C. With `O=C1c2c(cc(O)c(Cl)c2Cl)CC1(c1ccccc1)C1CCCC1` (stereo unspecified), the melting point was 161 to 170 °C. Turning to `COc1ccccc1-c1nc(=O)c2ccccc2s1`, the melting point amounted to 144 °C.

`CCc1c(C(=O)C(N)=O)c2cc(OCCCC(=O)O)ccc2n1Cc1ccccc1` came in with a melting point of 173 to 175 °C.

As to `CCCCOC(=O)c1c(CN2CCCCC2)nc2cc(OC)c(OC)cc2c1-c1ccc(OC)c(OC)c1`, the melting point fell in the range of 154 to 155 °C. The value for `CCOC(C)=C(C#N)C(=O)Nc1ccccc1F` was 158 to 160 °C. As to `CC(=O)c1ccc(C=Cc2ccc(C(C)=O)s2)s1`, the melting point was found to be 248 °C. `Oc1ccc(CCc2nc(-c3cccs3)c[nH]2)cc1` came in with a melting point of 166 to 167 °C.

`COC=C1CCC(C#N)(c2ccc(OC)c3c2OCCO3)CC1` (stereo unspecified) showed a melting point of 112 to 113 °C.

Consider `COc1ccccc1COC(=O)C(O)CNCCc1ccc(OC)c(OC)c1` (stereo unspecified), for which the melting point lay in the range of 79.5 to 82.5 °C. The value for `CC(=O)OC1CSC(Oc2ccccc2-c2ccno2)C(OC(C)=O)C1OC(C)=O` (stereo unspecified) was 75 °C; that for `O=C(O)C1SC(c2ccccc2)=NN1C(=O)CCS` (stereo unspecified) was 145 to 146 °C. As for `CN1CCCC1=NC(=O)Nc1ccc(F)cc1`, the melting point was in the range of 113 to 115 °C. Take `CCNC(=S)Nc1ccc(NNC(C)=O)cc1`: the melting point lay within 191 to 193 °C. Take `COc1ccccc1O[C@@H]1CN(Cc2ccccc2)C[C@H]1O` (relative stereo): the melting point was in the range of 115 to 117 °C.

Molecule `Cc1ccc(-c2ccc3c(c2)C=C(C(=O)Nc2ccc(CN4CCC(Cc5ccccc5)CC4)cc2)CC3)cc1` had a melting point of 199 to 201 °C. Consider `CCOP(=O)(OCC)c1cc2cc(N)c(Cl)cc2[nH]c1=O`, for which the melting point is 255 to 260 °C. `Cn1cc(-c2cccc(N3CCc4c(cc5n4CCCC5)C3=O)c2CO)nc(Nc2ccc3c(c2)CNCC3)c1=O`: the melting point fell in the range of 218 to 220 °C. In turn, `CC(C)c1ccccc1N=C1N=CC(C)(C)CS1` displayed a melting point of 155 to 157 °C. Take `Cc1cc2c(c3ccc(=O)[nH]c13)OC(CNC(=O)CN(C)C)C2` (stereo unspecified): the melting point is more than 250 °C. `CCCCCc1ccc(Br)nn1` displayed a melting point of 31 to 32 °C. The value for `COc1ccc(Cn2cnc3c(-c4ccco4)nc(Cl)nc32)cc1C` was 177 to 179 °C; that for `COc1cccc2c(CCCN(CC3CC3)C3COc4c(F)ccc(C(N)=O)c4C3)coc12` (stereo unspecified) was 125 to 132 °C; that for `CCOC(=O)COc1ccc(C(=O)Nc2cccc(Cl)c2Sc2ccccc2-c2nnn[nH]2)cc1` was 180 to 182 °C. As for `Cc1ccc(S(=O)(=O)OCC2Cc3cccc(-c4ccccc4C(F)(F)F)c3O2)cc1` (stereo unspecified), the figure is 116 to 118 °C; as for `O=C(O)C1Cc2ccsc2S1(=O)=O` (stereo unspecified), 189 to 193 °C. The molecule `OC(CNCC(O)C1CCc2ccccc2O1)C1CCc2ccccc2O1` (stereo unspecified) displayed a melting point of 131 °C. As for `Cc1ccc(Sc2cncc3sc(C(N)=O)cc23)cc1C`, the figure is 192 to 194 °C; as for `CCCN(CCC)C(=O)n1cnc(S(C)(=O)=O)n1`, 94 °C; as for `CCc1nc(C)ccc1OC1SCC(O)C(O)C1O` (stereo unspecified), 172 to 174 °C. In turn, `COC(=O)c1ccc(CCc2ccncc2)cc1` displayed a melting point of 62 to 64 °C. Turning to `CCC(Nc1cc(C)nc(Oc2c(C)cc(Cl)cc2C)c1C(=O)OC)C(C)O` (stereo unspecified), the melting point is 133 to 135 °C. In turn, `C=CC(C)(O)CN1CCC2(CC1)CSC1=C(O2)c2ccccc2C(=O)C1=O` (stereo unspecified) gave a melting point of 74 to 77 °C.

Molecule `CCc1cc2c(cc1CC)C(=CC#N)OC2=O` gave a melting point of 147 to 158 °C. In turn, `CC(C)(C)OC(=O)N1CCC(CNC(=O)c2cc(Cl)c(N)c3c2OCC3)C(O)C1` (stereo unspecified) displayed a melting point of 218 °C. In turn, `Cc1cccc(C)c1CNc1cc(CO)cc2c1nc(C)n2C` showed a melting point of 245 to 246 °C. As for `O=S(=O)(NCC1CCN(CCCOc2ccc(F)cc2)CC1)c1cccc2cnccc12`, the figure is 123 to 125 °C; as for `Cn1c(=O)c(-c2c(Cl)cccc2Cl)cc2cnc(NCc3ccccc3)nc21`, 217 to 219 °C; as for `O=C1CCN(C(=O)c2ccc(Cl)cc2Cl)c2ccc(Cl)cc21`, 177 to 178 °C. With `COc1ccc2nc3c(c(-c4ccc(C(F)(F)F)cc4)c2c1)CNC3=O`, the melting point is 305 °C.

`CS(=O)(=O)C(=C1CN(C(c2ccccc2)c2ccccc2)C1)c1cccc(N)c1` displayed a melting point of 197 °C. As for `CCCCNc1cc(C(N)=O)cc(S(N)(=O)=O)c1Oc1ccccc1`, the figure is 223 to 224 °C; as for `O=C(O)c1ccc2cc(Cl)ccn2c1=O`, more than 250 °C; as for `Cn1c(=O)c(=O)[nH]c2cc(C(F)(F)F)ccc21`, 255 °C.

For the molecule `COC(=O)CC1CC(=O)Nc2ccccc21` (stereo unspecified), the melting point was 115 to 116 °C. With `CC(C)(O)P(=O)(c1ccccc1)c1ccccc1`, the melting point fell in the range of 96 to 98 °C. Regarding `OCCCCc1c[nH]c2ccccc12`, the melting point is 189 to 190 °C. The value for `COc1ccc(Cn2nc(NC(=O)c3cc(NC(=O)c4cc([N+](=O)[O-])nn4Cc4ccc(OC)cc4)nn3Cc3ccc(OC)cc3)cc2C(=O)O)cc1` was 258 to 260 °C; that for `CN(CCN1C(=O)c2ccccc2S1(=O)=O)C1COc2ccccc2O1` (stereo unspecified) was 181 °C.

Molecule `COc1ccc(-n2nnnc2C(F)(F)F)c(OC)c1CO` gave a melting point of 74 to 79 °C. `OCc1cc(-c2ccc(Cl)cc2)on1` returned a melting point of 93 to 95 °C.

Turning to `Cc1cc(OCC(=O)O)c2sc3ccccc3c(=O)c2c1C`, the melting point lay in the range of 226 to 229 °C.

With `COc1ccccc1-c1nc2ccc(C(=O)O)cc2c(=O)[nH]1`, the melting point was 295 to 297 °C.

`O=C(O)c1cc(C(=O)O)c2c(Cl)cc(Cl)cc2n1` came in with a melting point of 246 °C. For `Cc1noc(NS(=O)(=O)c2ccc(-c3ccccc3)s2)c1Br`, the melting point worked out at 132 °C. `CCN1C(=O)C(C)(C)C(=O)N(C)c2cc(CCN(CCn3cc(C)c4occc4c3=O)Cc3cnccc3C)ccc21` gave a melting point of 165 to 166 °C.

`COc1cc(C(=O)O)ccc1Cn1ccc2ccc(NC(=O)OC3CCCC3)cc21` registered a melting point of 237 to 238 °C. As for `O=C(c1ccccc1Cl)c1cc(Cl)ccc1I`, the figure is 64 to 66 °C.

In turn, `O=c1c(Cc2cccnc2)cn2c3ccccc3c(=O)c3cccc1c32` registered a melting point of 266 to 268 °C. `CCCCc1nc2c(C)cccc2n1Cc1cc(C(=O)OC)no1` returned a melting point of 96 to 101 °C. With `CC1=NN=C(C=Cc2ccc(F)cc2)c2cc3c(cc2C1)OCO3`, the melting point was in the range of 141 to 144 °C. For the molecule `Cc1nc(C)n(-c2cc([C@@H]3C[C@H]3c3nc4ccccc4n3C)nc(C(N)=O)n2)n1` (relative stereo), the melting point was in the range of 119 to 121 °C. As for `Cn1c(C(F)(F)F)cc(=O)n(-c2ccc(Cl)cc2O)c1=O`, the melting point was 198 to 202 °C. The molecule `CCOC(=O)CC1(S(N)(=O)=O)c2ccccc2-c2ccc(Cl)cc21` (stereo unspecified) showed a melting point of 246 to 248 °C. The molecule `Nc1c(C(=O)c2ccccc2)[nH]c2cc(Cl)ccc12` gave a melting point of 128 to 130 °C. Molecule `C[C@@H]1C(=O)C[C@H]2C[C@@H]1OO[C@@]2(C)/C=C/c1c(F)c(F)c(F)c(F)c1F` returned a melting point of 128 °C. On to `CCOC(=O)c1c(NCc2ccccc2)n[nH]c1C`, for which the melting point was 149 to 159 °C.
